# From patent US11149037B2, “Pyrazole MAGL inhibitors” (H. Lundbeck A/S, priority 2017, dated 2021)
# Key:
# FAAH [1] = molecular target: FAAH (Homo sapiens (Human), UniProt O00519); assay: In vitro competitive activity-based protein profiling, human proteomes (prefrontal cortex or PC3 cell membrane fractions); type: biochemical; details: human proteome; for inhibition at 1 µM: read-out: FAAH % inh. 1 μM (human)
# Outline: (§1)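 Activity of MAGL and FAAH was quantified from fluorescent gel band intensities. Beforehand, inhibitors at several concentrations competed against subsequent probe labelling (FP-Rh, JW912 or HT-01) in species-matched proteomes, each step 30 min at 37° C.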
# MAGL [2] = molecular target: MAGL (Homo sapiens (Human), UniProt Q99685); assay: as above; type: biochemical; details: human proteome; for inhibition at 1 µM: read-out: MAGL % inh. 1 μM (human)
# Chain of MAGL (Homo sapiens (Human), UniProt Q99685) (Q99685 whole entry): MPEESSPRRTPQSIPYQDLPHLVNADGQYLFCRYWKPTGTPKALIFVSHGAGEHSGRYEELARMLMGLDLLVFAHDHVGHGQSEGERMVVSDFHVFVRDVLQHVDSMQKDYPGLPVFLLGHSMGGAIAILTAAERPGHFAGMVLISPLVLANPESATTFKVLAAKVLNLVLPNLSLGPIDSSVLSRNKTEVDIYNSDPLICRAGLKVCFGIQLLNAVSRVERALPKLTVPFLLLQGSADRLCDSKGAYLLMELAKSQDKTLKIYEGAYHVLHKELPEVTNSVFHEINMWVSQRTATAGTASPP
# Outline: as §1
# FAAH [3] = molecular target: T1, FAAH (Mus musculus (Mouse), UniProt O08914); assay: In vitro competitive activity-based protein profiling, mouse proteomes (brain membrane fraction or cell lysates); type: biochemical; details: mouse proteome; for inhibition at 1 µM: read-out: FAAH % inh. 1 μM (mouse)
# T1 sequence (O08914 whole entry): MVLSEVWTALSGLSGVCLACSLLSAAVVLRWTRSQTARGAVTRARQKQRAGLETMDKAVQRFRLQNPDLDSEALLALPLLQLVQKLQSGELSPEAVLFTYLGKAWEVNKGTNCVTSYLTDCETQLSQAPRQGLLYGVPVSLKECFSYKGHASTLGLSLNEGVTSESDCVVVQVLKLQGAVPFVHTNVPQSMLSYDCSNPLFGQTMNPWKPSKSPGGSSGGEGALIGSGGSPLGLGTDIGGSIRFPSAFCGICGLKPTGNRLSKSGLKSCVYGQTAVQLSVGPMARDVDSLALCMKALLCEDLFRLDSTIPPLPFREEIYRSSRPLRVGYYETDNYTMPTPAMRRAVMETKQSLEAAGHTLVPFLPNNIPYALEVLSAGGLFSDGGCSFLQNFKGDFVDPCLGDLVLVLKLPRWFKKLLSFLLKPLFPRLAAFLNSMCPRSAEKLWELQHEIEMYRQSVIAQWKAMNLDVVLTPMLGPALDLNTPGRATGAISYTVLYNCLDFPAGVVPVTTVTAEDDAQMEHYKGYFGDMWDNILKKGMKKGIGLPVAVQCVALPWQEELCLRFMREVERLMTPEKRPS
# Outline: as §1
# MAGL [4] = molecular target: T2, MAGL (Mus musculus (Mouse), UniProt O35678); assay: as above; type: biochemical; details: mouse proteome; for inhibition at 1 µM: read-out: MAGL % inh. 1 μM (mouse)
# T2 sequence (O35678 whole entry): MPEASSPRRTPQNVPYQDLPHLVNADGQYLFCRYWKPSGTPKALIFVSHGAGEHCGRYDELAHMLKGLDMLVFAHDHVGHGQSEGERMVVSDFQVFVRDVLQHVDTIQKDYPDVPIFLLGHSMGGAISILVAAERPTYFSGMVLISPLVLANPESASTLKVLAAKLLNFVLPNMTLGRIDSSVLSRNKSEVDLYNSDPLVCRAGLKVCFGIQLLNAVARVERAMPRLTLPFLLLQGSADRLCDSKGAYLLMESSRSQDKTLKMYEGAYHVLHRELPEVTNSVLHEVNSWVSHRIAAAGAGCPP
# Outline: as §1
# FAAH [5] = molecular target: T1, FAAH; assay: Mouse brain proteomes from inhibitor treated mice (oral gavage, sacrificed 4 h after administration); type: in vivo; details: 5 mg/kg oral gavage
# Experimental: (§2) Preparation of Mouse Brain Proteomes from Inhibitor Treated Mice.
# (§3) Inhibitors were administered to wild-type C57B1/6J by oral gavage in a vehicle of polyethylene glycol. Each animal was sacrificed 4 h following administration and brain proteomes were prepared and analyzed according to previously established methods (See Niphakis, M. J., et al. (2011) ACS Chem. Neurosci. and Long, J. Z., et al. Nat. Chem. Biol. 5:37-44).
# MAGL [6] = molecular target: T2, MAGL; assay: as above; type: in vivo; details: 5 mg/kg oral gavage
# Experimental: as §2, §3
# Chain of FAAH (Homo sapiens (Human), UniProt O00519) (O00519 whole entry): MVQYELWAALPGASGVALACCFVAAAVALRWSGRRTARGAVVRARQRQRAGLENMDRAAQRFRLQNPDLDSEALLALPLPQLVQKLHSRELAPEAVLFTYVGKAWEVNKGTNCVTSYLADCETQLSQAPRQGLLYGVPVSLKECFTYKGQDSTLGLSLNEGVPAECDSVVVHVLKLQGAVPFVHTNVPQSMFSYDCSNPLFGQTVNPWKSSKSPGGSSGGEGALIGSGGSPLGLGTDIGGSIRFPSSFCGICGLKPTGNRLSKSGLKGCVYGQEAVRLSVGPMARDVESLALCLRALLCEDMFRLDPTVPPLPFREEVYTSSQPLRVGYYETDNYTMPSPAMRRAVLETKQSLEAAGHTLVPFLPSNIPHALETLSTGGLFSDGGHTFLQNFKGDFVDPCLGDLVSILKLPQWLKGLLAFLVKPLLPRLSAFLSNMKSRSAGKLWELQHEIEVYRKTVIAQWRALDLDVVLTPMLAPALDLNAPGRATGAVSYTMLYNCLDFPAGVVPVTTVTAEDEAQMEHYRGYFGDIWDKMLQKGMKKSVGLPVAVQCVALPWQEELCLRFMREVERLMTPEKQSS
Compound,inhibition at 1 µM (FAAH [1]; 1 μM) [%],inhibition at 1 µM (MAGL [2]; 1 μM) [%],inhibition at 1 µM (FAAH [3]) [%],inhibition at 1 µM (MAGL [4]) [%],FAAH % inh. 5 mg/kg (mouse) (FAAH [5]),MAGL % inh. 5 mg/kg (mouse) (MAGL [6]),IC50 (FAAH [1]) [µM],IC50 (MAGL [2]) [µM],FAAH % inh. 1 μM (human) (FAAH [1]; 1 μM),MAGL % inh. 1 μM (human) (MAGL [2]; 1 μM),FAAH % inh. 1 μM (mouse) (FAAH [3]),MAGL % inh. 1 μM (mouse) (MAGL [4])
"C[C@H]1CN(C(=O)n2ccc(NS(C)(=O)=O)n2)CCN1Cc1ccc(Cl)c(N2CCC(F)CC2)c1 [Example 148, (S)-N-(1-(4-(4-Chloro-3-(4-fluoropiperidin-1-yl)benzyl)-3-methylpiperazine-1-carbonyl)-1H-pyrazol-3-yl)methanesulfonamide]",0 to 25,> 75,0 to 25,> 75,D (% inhibition is greater than or equal to 0% and less than 25%),A (% inhibition is greater than or equal to 75%),–,–,–,–,–,–
"CC(=O)Nc1ccn(C(=O)N2CCN(Cc3ccc(N4CC5COCC5C4)cc3C(F)(F)F)CC2)n1 (centres unmarked) [Example 22, N-(1-(4-(4-(tetrahydro-1H-furo[3,4-c]pyrrol-5(3H)-yl)-2-(trifluoromethyl)benzyl)piperazine-1-carbonyl)-1H-pyrazol-3-yl)acetamide]",50 to 75,> 75,> 75,> 75,C (% inhibition is greater than or equal to 25% and less than 50%),C (% inhibition is greater than or equal to 25% and less than 50%),0.1 to 1,< 0.1,–,–,–,–
"CS(=O)(=O)Nc1ccn(C(=O)N2CCN(Cc3ccc(Cl)c(N4CCO[C@@H]5CCC[C@@H]54)c3)CC2)n1 [Example 158, N-(1-(4-(4-Chloro-3-((4aS,7aR)-hexahydrocyclopenta[b][1,4]oxazin-4(4aH)-yl)benzyl)piperazine-1-carbonyl)-1H-pyrazol-3-yl)methanesulfonamide]",0 to 25,> 75,0 to 25,> 75,D (% inhibition is greater than or equal to 0% and less than 25%),D (% inhibition is greater than or equal to 0% and less than 25%),–,–,–,–,–,–
"CC(=O)Nc1ccn(C(=O)N2CCC3(CCCN3Cc3cc4cc(Cl)ccc4s3)CC2)n1 [Example 39, N-(1-(1-((5-Chlorobenzo[b]thiophen-2-yl)methyl)-1,8-diazaspiro[4.5]decane-8-carbonyl)-1H-pyrazol-3-yl)acetamide]",–,–,50 to 75,> 75,D (% inhibition is greater than or equal to 0% and less than 25%),A (% inhibition is greater than or equal to 75%),1 to 10,< 0.1,–,–,–,–
"CC(=O)Nc1ccn(C(=O)N2CC3CN(Cc4cccc(C(F)(F)F)c4)CC3C2)n1 (centres unmarked) [Example 112, N-(1-(5-(3-(Trifluoromethyl)benzyl)octahydropyrrolo[3,4-c]pyrrole-2-carbonyl)-1H-pyrazol-3-yl)acetamide]",25 to 50,> 75,> 75,> 75,A (% inhibition is greater than or equal to 75%),A (% inhibition is greater than or equal to 75%),–,–,–,–,–,–
"CC1CN(C(=O)n2ccc(NS(C)(=O)=O)n2)CCN1Cc1ccc(C(F)(F)F)c(N2CCC(F)CC2)c1 (centres unmarked) [Example 141, N-(1-(4-(3-(4-Fluoropiperidin-1-yl)-4-(trifluoromethyl)benzyl)-3-methylpiperazine-1-carbonyl)-1H-pyrazol-3-yl)methanesulfonamide]",0 to 25,> 75,0 to 25,> 75,D (% inhibition is greater than or equal to 0% and less than 25%),A (% inhibition is greater than or equal to 75%),–,–,–,–,–,–
"CS(=O)(=O)Nc1ccn(C(=O)N2CCN(Cc3ccc(Cl)nc3N3CCCC3)CC2)n1 [Example 90, N-(1-(4-((6-Chloro-2-(pyrrolidin-1-yl)pyridin-3-yl)methyl)piperazine-1-carbonyl)-1H-pyrazol-3-yl)methanesulfonamide]",0 to 25,> 75,0 to 25,> 75,D (% inhibition is greater than or equal to 0% and less than 25%),C (% inhibition is greater than or equal to 25% and less than 50%),–,–,–,–,–,–
"CC(=O)Nc1ccn(C(=O)N2CCC3(CCN(Cc4ccc(C(N)=O)c(C(F)(F)F)c4)C3)CC2)n1 [Example 125, 4-((8-(3-Acetamido-1H-pyrazole-1-carbonyl)-2,8-diazaspiro[4.5]decan-2-yl)methyl)-2-(trifluoromethyl)benzamide]",0 to 25,> 75,0 to 25,> 75,D (% inhibition is greater than or equal to 0% and less than 25%),D (% inhibition is greater than or equal to 0% and less than 25%),–,–,–,–,–,–
"CS(=O)(=O)Nc1ccn(C(=O)N2CC[C@H](Oc3ccc(C(F)(F)F)c(N4CCC(F)CC4)c3)[C@H](F)C2)n1 [Example 134, N-(1-((3R,4S)-3-Fluoro-4-(3-(4-fluoropiperidin-1-yl)-4-(trifluoromethyl)phenoxy)piperidine-1-carbonyl)-1H-pyrazol-3-yl)methanesulfonamide]",0 to 25,> 75,0 to 25,> 75,D (% inhibition is greater than or equal to 0% and less than 25%),C (% inhibition is greater than or equal to 25% and less than 50%),–,–,–,–,–,–
"CS(=O)(=O)Nc1ccn(C(=O)N2CCN(Cc3ccc(C(F)(F)F)nc3N3CCCC3)CC2)n1 [Example 71, N-(1-(4-((2-(Pyrrolidin-1-yl)-6-(trifluoromethyl)pyridin-3-yl)methyl)piperazine-1-carbonyl)-1H-pyrazol-3-yl)methanesulfonamide]",0 to 25,> 75,0 to 25,> 75,D (% inhibition is greater than or equal to 0% and less than 25%),A (% inhibition is greater than or equal to 75%),–,–,–,–,–,–
"CS(=O)(=O)Nc1ccn(C(=O)N2C[C@H]3C[C@@H](N(CC(=O)O)Cc4cc(Cl)ccc4C(F)(F)F)C[C@H]3C2)n1 [Example 93, N-(5-Chloro-2-(trifluoromethyl)benzyl)-N-((3aR,5r,6aS)-2-(3-(methylsulfonamido)-1H-pyrazole-1-carbonyl)octahydrocyclopenta[c]pyrrol-5-yl)glycine]",–,–,–,–,D (% inhibition is greater than or equal to 0% and less than 25%),D (% inhibition is greater than or equal to 0% and less than 25%),–,–,D (% inhibition is greater than or equal to 0% and less than 25%),A (% inhibition is greater than or equal to 75%),D (% inhibition is greater than or equal to 0% and less than 25%),A (% inhibition is greater than or equal to 75%)
